Reference: patent US20090186915A1, “Compositions and methods for treatment of glioblastoma, gliosarcoma, NSCLC, and head and neck cancer” (Unibioscreen S. A., priority 2006, published 2009)
Where two headings read alike, the source gives them in different places.

Tests used:
PC-3 = experiment: Senescence-associated β-galactosidase staining, PC-3; type: cell-based, human; conditions: 10 μM, 72 hours
Experimental: After the indicated treatments, cells were washed in PBS, fixed for 3 to 5 minutes (at room temperature) in 2% formaldehyde/0.2% glutaraldehyde, washed and incubated at 37° C. (in the absence of CO2) with fresh senescence-associated β-Gal (SA-β-Gal) staining solution: 1 mg/ml of 5-bromo-4-chloro-3-indolyl […] (X-Gal; Sigma). Staining was evident within 2 to 4 hours and maximal after 12 to 16 hours. To detect lysosomal β-Gal, the citric acid/sodium phosphate used was pH 4.0. As described in the study of Dimri et al. [Proc Natl Acad Sci USA. 1995; 92:9363-9367.], after fixing and staining with X-Gal, the number of cells positive for the SA-β-Gal activity (intense blue staining) was then counted independently by two different individuals (on 400 cells/plate). Representative photographs (original magnifications, ×20) of stained cells from different experimental treatments were taken. As a positive control for SA-β-Gal expression, Adriamycin-treated cells were used.
Human PC-3 and DU-145 prostate cancer cells cultured in 0 or 10 μM UNBS5162 or 20 nM Adriamycin for 72 hours were evaluated by SA-β-Gal staining. The data clearly indicate that 10 μM [but not 1 μM or 5×1 μM] […] TMZ, as an inducer of autophagy but not of senescence, was used as a negative control.

Rb, pRb = experiment: Western blot of Rb and p-Rb, PC-3; type: cell-based, human; conditions: 10 μM, 48 and 72 hours
Experimental: Cell extracts were prepared by the lysis of subconfluent PC-3 cells directly in boiling lysis buffer (10 mM Tris, pH 7.4, 1 mM Na3O4V, 1% SDS, pH 7.4). Approximately 40 μg of extracted proteins (evaluated by the bicinchoninic acid protein assay; Pierce, Perbio Science, Erembodegem, Belgium) was then loaded onto a denaturing polyacrylamide gel. The proteins submitted to Western blot analyses were detected using primary antibodies provided by: 1) CST Technologies, Bioké, Leiden, The Netherlands: Rb (1:2000) and p-Rb (1:1000); 2) BD Transduction Laboratories, Erembodegem, Belgium: E2F1 (1:400); and 3) AbCam, Cambridge, UK: tubulin (1:3000, used as a loading control). The antibody for LC-3 protein (1:500) was kindly provided by Dr. Yasuko Kondo. Western blot analyses were performed as detailed previously.

MCF-7 = experiment: MTT colorimetric assay, MCF-7 cells; type: cell-based; conditions: Homo sapiens, MCF7, 72 h, 3 days of culturing, mean of six determinations, read-out: IC50 (μM) In Vitro Growth Inhibition
Experimental: (§1) The overall growth of human cancer cell lines was determined by means of the calorimetric MTT (3-[4,5-dimethylthiazol-2-yl]-diphenyl tetrazolium bromide; Sigma) assay, as detailed previously.

U-373MG = experiment: MTT overall cell growth, U-373MG cells; type: cell-based; conditions: Homo sapiens
Experimental: Tests were performed in order to rapidly, i.e. within 5 days, measure the effect of the compound of example 2 on the overall cell growth. The test measures the number of metabolically active living cells that are able to transform the yellow product 3-(4,5-dimethylthiazol-2-yl)-2,5-diphenyl tetrazolium bromide (herein referred as MTT) into the blue product formazan dye by mitochondrial reduction. The amount of formazan obtained at the end of the experiment, measured by means of a spectrophotometer, is directly proportional to the number of living cells. Optical density determination thus enables a quantitative measurement of the effect of the investigated compounds as compared to the control condition (untreated cells) and/or to other reference compounds.
Six human cancer cell lines described in table 1 were used in the following MTT tests. These cell lines cover six histological cancer types, being prostate, glioma, pancreas, colon, lung and breast cancers. Cells were allowed to grow in 96 well micro-wells with a flat bottom with an amount of 100 μl of cell suspension per well with 1,000 to 4,000 cells/well depending on the cell type used. Each cell line was seeded in a well known MEM 10% serum culture medium. […]
After 72 hours of incubation at 37° C. with (experimental conditions) or without (control condition) the compound to be tested, the medium was replaced by 100 μl MTT dissolved in RPMI (1640 without phenol red) at a concentration of 1 mg/ml. […] The micro-wells were shaken for 5 minutes and read on a spectrophotometer at wavelengths of 570 nm (maximum formazan absorbance) and 630 nm (back-ground noise).
For each experimental condition, the mean optical density was calculated, as well as the percentage of remaining living cells in comparison with the control.
as §1

[1] = test system: platelets, red and white blood cells; experiment: Compound-induced hematotoxicity and tolerance in mice; type: in vivo; conditions: 20 mg/kg intra-venous, three times a week for five weeks
Experimental: We have determined the compound-induced potential hematotoxicity of the compound produced according to example 2 or example 7 on platelets, red and white blood cells in comparison of the effect of amonafide on platelets, red and white blood cells. The effect of amonafide was evaluated at 10 mg/kg and 20 mg/kg, by the intra-peritoneal administration to mice. The administration schedule was five times a week for three consecutive weeks. The effect of the compound produced according to example 2 or example 7 was evaluated at 20 mg/kg, by the intra-venous administration to mice. The administration schedule was three times a week (on Mondays, Wednesdays and Fridays) for five consecutive weeks. The animals were sacrificed 3 days after the last injection. There were 10 mice per group. FIG. 1 illustrates results of this assay for compound-induced hematotoxicity on platelets.

SMILES: CN(C)CCN1C(=O)c2cccc3cc(NC(N)=O)cc(c23)C1=O [UNBS5162, N-{2-[2-(dimethylamino)ethyl]-1,3-dioxo-2,3-dihydro-1H-benzo[de]isoquinolin-5-yl}urea]
- SA-β-Gal expression (PC-3): Limited SA-β-Gal expression
- Rb protein expression (Rb, pRb): completely abolished Rb protein expression
- IC50 (MCF-7): 46.5 µM
- IC50 (U-373MG; 72 h, U373-MG, 3 days of culturing, mean of six determinations, read-out: IC50 (μM) In Vitro Growth Inhibition): 4.7 µM
- IC50 (U-373MG; U373 MG, U-373MG, 72 hours incubation, range of molar concentrations, read-out: IC50): 5 to 10 µM
- tolerance of chronic administrations [1]: tolerated 15 chronic administrations
